The test system of assay [1] is tumor Micro-Organospheres. The assay can be described thus: drug screen on Patient-Derived Micro-Organospheres formed from a patient tumor biopsy. The assay is classed as cell-based. As to conditions: for percent survival of the Micro-Organospheres in the presence of the drug: Example 3, FIG. 23B, 23C. The source says: The Patient-Derived Micro-Organospheres described herein may be used in a variety of different assays, and in particular may be used to determine drug formulation effects, including toxicity, on normal and/or abnormal (e.g., cancerous) tissue. For example, drug screening may include applying Micro-Organospheres into all or some wells of multi-well (e.g., a 96-well) plate. Alternatively custom plates may be used (e.g., a 10,000 micro-well array may be formed of a 100 × 100 wells). The Micro-Organospheres (e.g., gel droplets) may be applied into, or in some variations onto the multiple microwell arrays and incubated with culture medium. The Micro-Organospheres may be cultured over the course of 3-5 days. In some variations, on day 5, the wells (e.g., micro-reactors) may then be dosed with drug compounds, e.g., based on a set of FDA-approved anticancer drugs, to examine the effects of the drug panel. For example, the drugs texted may be based on the National Cancer Institute (Division of Cancer Treatment and Diagnosis (11)) screen, consisting of 147 agents intended to enable cancer research, drug discovery and combination drug studies. On Day 7, the Micro-Organospheres may be imaged via standard fluorescent microscopy and ranked based on drug response.
In this example, the screening assay may be automated. This may enable repeatable and automated workflow, which may increase the number of drugs screened from a few to hundreds. FIGS. 17A-17E illustrate one example of this workflow. In FIG. 17A, a tumor biopsy is taken and a plurality (e.g., >10,000) Micro-Organospheres are formed as described above (in FIG. 17A the junction region forming the Micro-Organospheres is illustrated).
The workflow shown in FIGS. 17A-17E may enable an integrated device to be used for growing, dosing and/or reviewing the Micro-Organospheres. […] Their response to drug treatments, such as IC-50, cytotoxicity, and growth curves, may be measured to identify effective therapeutics against the patient's tumor.

The next assay relates to traditional cell line. The assay can be described thus: traditional (2D) tumor cell line dosed with drug. The assay is classed as cell-based. As to conditions: Example 2, FIG. 22A, all dose ranges examined. From the text:
As mentioned above, the Patient-Derived Micro-Organospheres and methods of using them to screen for drug compositions may be used to accurately predict the response of a patient tumor to one or more drug therapies. […] For example, in FIG. 22A-22D, the Micro-Organospheres, but not a cell line, was able to correlate with patient response.

The subject of the next assay is patient tumor. In words: actual response of the patient's tumor to treatment with the drug. The assay is classed as in vivo. The procedure:
In a similar set of experiments, Micro-Organospheres were generated from biopsy material (FIG. 23A), and a drug effect screen was performed using the resulting Micro-Organospheres. […] Thus, the Micro-Organospheres correlated strongly with patient response to the standard of care drugs. In this case, the patient endured six months of side effects and toxicities that may have been avoided by the predicted response from the Micro-Organospheres, indicating (within 7-10 days from the biopsy) that the tumor would not respond to these drugs.

Each structure is given as a SMILES string.

The record followed here is patent publication US11555180B2, “Methods and apparatuses for patient-derived micro-organospheres” (Xilis, Inc., priority 2019, dated 2023).

For the compound `CCc1c2c(nc3ccc(OC(=O)N4CCC(N5CCCCC5)CC4)cc13)-c1cc3c(c(=O)n1C2)COC(=O)[C@]3(O)CC` [Irinotecan], the “percent survival of the Micro-Organospheres in the presence of the drug” value in assay [1] is recorded as “lack of effect”.

In the case of `O=C1[O][Pt]2([NH][C@@H]3CCCC[C@H]3[NH]2)[O]C1=O` [Oxaliplatin], the “effect of the drug on the cell line” value with traditional cell line is “no effect”. The “tumor response to treatment” value with patient tumor (Example 2, FIG. 22C (before) and 22D (post treatment)) is recorded as “responded to treatment”. Moreover, in the assay with patient tumor (Example 3, treated with both Oxalipalatin and Irinotecan, after 6 months of treatment), the “patient response to treatment” value is reported as “no response”. In addition, the “cell survival of tumor Micro-Organospheres” value in assay [1] (Example 2, FIG. 22B) is given as “significant decreases in cell survival”. Besides, the “percent survival of the Micro-Organospheres in the presence of the drug” value in assay [1] was “no change in the percent survival”.
